Assay results from patent US20220332839A1, “USE OF PRG4 TO TREAT CANCER” (Lubris LLC, priority 2019, published 2022).

Tests used:
Assay type in all cases: cell-based, human
MDA-MB-231 cells [1] = test: In vitro trans-well invasion assay
Experimental: Overnight 0.2% FBS-containing DMEM incubated, i.e. serum-starved, MDA-MB-231 cells were used for the transwell invasion using polycarbonate filters (24-well insert, pore size 8 μm; BD Biosciences, Canada). Prior to addition of cells, each insert was placed within a well of a 24-well tissue culture plate and equilibrated with 0.5 mL serum-free DMEM, added both to the upper and lower chambers at 37° C. for 2 h. The equilibration media was then gently removed and upper chamber surface of the insert was coated with 50 μL of 3% Matrigel and allowed to solidify at 37° C. for 1 h. 1×10^5 serum-starved MDA-MB-231 cells were resuspended in 0.5 mL of serum-free DMEM and added to the upper Matrigel-coated chamber. 500 μL complete growth medium alone or containing specific reagents, as described in the respective figure descriptions, was added to the lower chambers. Cells were allowed to invade the matrix for 12 h at 37° C. after which non-adherent cells were removed by PBS washing of cell layers on the upper chamber three times. During the second wash a cotton tip applicator was used to gently scrape away the adherent cells on the upper surface of the membrane. Invading cells were fixed by immersing the transwell inserts in 100% methanol for 10 minutes at −20° C., followed by staining with 0.5% crystal violet dye (EMD Millipore, Canada) for 1 h at room temperature. Eight randomly chosen fields of each stained membrane were imaged at 10× objective of a DIC microscope (Olympus IX70) coupled to a digital camera. Cell numbers were obtained by counting the number of crystal violet stained cells in each field using a handheld counter. The average cell numbers for all images per treatment conditions were calculated and used for further statistical analysis. Each experiment was performed at least three independent times.

MDA-MB-231 cells [2] = test: In vitro scratch assay (migration); settings: 36 h
Experimental: 5×10^5 MDA-MB-231 cells were seeded in each well of a 12-well tissue culture plate and grown overnight to near confluency in complete growth medium and then overnight serum starved by incubating with 0.2% FBS-containing DMEM medium in a 5% CO2 humidified incubator at 37° C. incubator. […] Scratch closure in each well was followed by imaging the scratch and surrounding cells in each well at 3× objective of a DIC microscope (Olympus IX70) coupled to a digital camera at time 0 h and 36 h after initiating the scratch. Five images were captured along the vertical axis of the scratch for each experimental condition. The width of each scratch was measured at three different positions per image for a total of 15 measurements using ImageJ (National Institutes of Health, USA), and then averaged per experimental condition. The width average at 36 h was subtracted from the width average at 0 h and expressed relative to that at 0 h width for each experimental condition to obtain scratch closure, and expressed as percent scratch closure.

HAS2 = HAS2 protein abundance in MDA-MB-231 cells (immunoblot); settings: 100 pM TGFβ; 100 μg/mL rhPRG4 in the absence or presence of TGFβ
Experimental: Cells were washed with PBS to remove all growth media. Appropriate volume of TNTE lysis buffer (50 mM Tris, 150 mM NaCl, 1 mM EDTA, 0.5% [v/v] Triton-X-100) containing protease and phosphatase inhibitors, was added to the cell monolayer and incubated at 4° C. under vigorous shaking for 20 minutes. Lysates were then collected in microcentrifuge tubes and centrifuged at 13,000 g for 10 minutes at 4° C. 5 μL of the lysate were subjected to protein concentration determination using Bradford-based protein assays (Bio-Rad Laboratories, Canada). Lysates were boiled for 3 minutes at 95° C. in dithiothreitol (DTT)-containing Laemmli sample buffer. For immunoprecipitation analyses, lysates were incubated with appropriate antibodies at 4° C. with gentle rocking for 3 h after which immunocomplexes were incubated with Protein G-conjugated agarose beads (UBPBio, USA) at 4° C. with gentle rocking for 3 h. Finally, the beads were washed with TNTE wash buffer (0.1% [v/v] Triton-X-100) and boiled for 5 minutes at 95° C. in dithiothreitol (DTT) containing Laemmli sample buffer. Immunoprecipitates and input lysates were then resolved by sodium dodecyl sulfate-polyacrylamide electrophoresis (SDS-PAGE) and transferred onto a nitrocellulose membrane (Bio-Rad Laboratories, Canada). […] Densitometric analyses were performed using Quantity One software (Bio-Rad Laboratories, Canada).

[3] = test system: HLE, HLF and PLC/DC/19 cells; test: 72-hour proliferation assay, CD44 positive HCC cells; settings: drug 2.5 μM, rhPRG4 12.5 to 100 μg/ml
Experimental: (§1) Proliferation assay: In 100 μl complete medium, 3,000 cells were seeded in wells of a 96-well plate and left overnight to allow complete attachment. The next day (at time t=0 hours), the medium was removed and replaced with 100 μl of fresh medium in the presence/absence of Sorafenib (2.5 μM), Regorafenib (2.5 μM), rhPRG4 (12.5 to 100 μg/ml). Dimethyl sulfoxide (DMSO) and PBS+0.01% Tween-20 were used as vehicles of Sorafenib/Regorafenib, and rhPRG4, respectively. Cells in triplicate wells for each cell line were fixed at t=0 hours with 4% paraformaldehyde (PFA, pH 7.6, 10 min incubation), then stained with crystal violet (CV) and thoroughly washed to remove the excess staining. After 72 hours, the cells were fixed by adding 100 μl of 4% PFA directly to the medium (2% final PFA concentration, 20 min incubation), and processed for CV staining as previously described. Then, 100 or 200 μl of 1% sodium dodecyl-sulphate were added to the wells and the plates were left under shaking until complete CV release from stained cells. Optical density was at 595 nm wavelength measured using a plate reader.
Characterization of the primary HCC cells line PLC/DC/19: The primary HCC cell line, PLC/DC/19, was isolated from freshly collected surgically resected HCC specimen following the same isolation procedure to isolate CAFs. […]

Hep3B = test: 72-hour proliferation assay, Hep3B; settings: only at the highest rhPRG4 concentrations; drug 2.5 μM
Experimental: as §1

Row | Substance | invasion of cells, stimulus alone vs untreated control (MDA-MB-231 cells [1]; 100 pM TGFβ, 400 μg/mL LMWHA) | scratch closure, TGFβ vs control well (MDA-MB-231 cells [2]; 100 pM TGFβ) | protein abundance of HAS2, immunoblotting (HAS2) | invasion of cells in the absence or presence of TGFβ (MDA-MB-231 cells [1]; 100 μg/mL rhPRG4, 100 pM TGFβ, 12 h) | cell invasion in the presence of LMWHA (MDA-MB-231 cells [1]; 400 μg/mL LMWHA, 5 μg/mL CD44 neutralizing antibody, 100 μg/mL rhPRG4) | scratch closure in the absence or presence of TGFβ (MDA-MB-231 cells [2]; 100 μg/mL rhPRG4) | effectiveness of Sorafenib or Regorafenib when coupled with rhPRG4 [3] | rhPRG4-drug synergistic effect (Hep3B)
1 | TGFβ: recombinant human mature transforming growth factor beta (R&D systems) [reference compound] | promote the invasion of MDA-MB-231 cells | increased the scratch closure process | increased the protein abundance of HAS2 |  |  |  |  | 
2 | rhPRG4: full-length recombinant human PRG4 (lubricin) glycoprotein produced by CHO-M cells; residues 25-1404 of SEQ ID NO:1 |  |  | suppressed the protein abundance of HAS2 | blocked the ability of MDA-MB-231 cells to be invasive | able to inhibit breast cancer cell invasion | significantly delayed the scratch closure process | strongly and synergistically improved their effectiveness | present during Hep3B proliferation, even if lower
